The NIST ThermoML archive (doi:10.1016/j.jct.2018.02.022)
± gives the expanded uncertainty stated by the source.

Experiments:
[1] = 92.3 kPa, Liquid; for viscosity: Concentric cylinders viscometry; for speed of sound: Frequency=3 MHz, Single path-length method; for mass density: Vibrating tube method
[2] = xn = mol fraction of the nth substance listed; conditions: 92.3 kPa, Liquid, x2 = 0; for viscosity: Concentric cylinders viscometry; for mass density: Vibrating tube method

Row | SMILES | viscosity ([1]; 293.15 K) [mPa·s] | speed of sound ([1]; 293.15 K) [m/s] | mass density ([1]; 293.15 K) [kg/m3] | viscosity ([1]; 298.15 K) [mPa·s] | speed of sound ([1]; 298.15 K) [m/s] | mass density ([1]; 298.15 K) [kg/m3] | viscosity ([1]; 303.15 K) [mPa·s] | speed of sound ([1]; 303.15 K) [m/s] | mass density ([1]; 303.15 K) [kg/m3] | viscosity ([1]; 308.15 K) [mPa·s] | speed of sound ([1]; 308.15 K) [m/s] | mass density ([1]; 308.15 K) [kg/m3] | viscosity ([2]; 293.15 K) [mPa·s] | mass density ([2]; 293.15 K) [kg/m3] | viscosity ([2]; 298.15 K) [mPa·s] | mass density ([2]; 298.15 K) [kg/m3] | viscosity ([2]; 303.15 K) [mPa·s] | mass density ([2]; 303.15 K) [kg/m3] | viscosity ([2]; 308.15 K) [mPa·s] | mass density ([2]; 308.15 K) [kg/m3]
1 | OCC(O)CO [glycerol] | 1408.4 ± 210 | 1925.5 ± 1.8 | 1260.73 ± 3 | 900.44 ± 130 | 1911.9 ± 1.8 | 1257.65 ± 3 | 593.09 ± 85 | 1899.6 ± 1.8 | 1254.48 ± 3 | 401.76 ± 57 | 1888.1 ± 1.8 | 1251.38 ± 3 | – | – | – | – | – | – | – | –
2 | OCCO [1,2-ethanediol] | 20.61 ± 2.9 | 1666.5 ± 1.8 | 1113.72 ± 3 | 16.22 ± 2.3 | 1654.7 ± 1.8 | – | 13.87 ± 1.9 | 1642.9 ± 1.8 | 1106.71 ± 3 | 11.48 ± 1.6 | 1631.2 ± 1.8 | – | – | – | – | – | – | – | – | –
3 | OCCOCCOCCO [triethylene glycol] | 48.06 ± 6.7 | 1626.8 ± 2 | 1123.48 ± 3 | 36.88 ± 5.2 | 1611.6 ± 2 | 1119.59 ± 3 | 29.59 ± 4.1 | 1596.6 ± 2 | 1115.7 ± 3 | 23.72 ± 3.3 | 1581.7 ± 2 | 1111.81 ± 3 | – | – | – | – | – | – | – | –
4 | O [water] | 1.067 ± 0.15 | – | 998.429 ± 3 | 0.8969 ± 0.13 | – | 997.267 ± 3 | 0.8385 ± 0.12 | – | 995.867 ± 3 | 0.7589 ± 0.11 | – | 994.252 ± 3 | – | – | – | – | – | – | – | –
5 | OCCOCCO [diethylene glycol] | 35.89 ± 5 | 1591 ± 2 | 1116.73 ± 3 | 27.67 ± 3.9 | 1579.1 ± 2 | 1113.17 ± 3 | 22.48 ± 3.1 | 1567.2 ± 2 | 1109.6 ± 3 | 18.27 ± 2.6 | 1555.3 ± 2 | 1106.01 ± 3 | – | – | – | – | – | – | – | –
6 | O [water] + OCCO | – | – | – | – | – | – | – | – | – | – | – | – | 1.067 ± 0.15 | 998.429 ± 3 | 0.8969 ± 0.13 | 997.267 ± 3 | 0.8385 ± 0.12 | 995.867 ± 3 | 0.7589 ± 0.11 | 994.252 ± 3
7 | O [water] + OCCOCCOCCO | – | – | – | – | – | – | – | – | – | – | – | – | 1.067 ± 0.15 | 998.429 ± 3 | 0.8969 ± 0.13 | 997.267 ± 3 | 0.8385 ± 0.12 | 995.867 ± 3 | 0.7589 ± 0.11 | 994.252 ± 3
8 | O [water] + OCC(O)CO | – | – | – | – | – | – | – | – | – | – | – | – | 1.067 ± 0.15 | 998.429 ± 3 | 0.8969 ± 0.13 | 997.267 ± 3 | 0.8385 ± 0.12 | 995.867 ± 3 | 0.7589 ± 0.11 | 994.252 ± 3
9 | O [water] + CCO | – | – | – | – | – | – | – | – | – | – | – | – | 1.067 ± 0.15 | 998.429 ± 3 | 0.8969 ± 0.13 | 997.267 ± 3 | 0.8385 ± 0.12 | 995.867 ± 3 | 0.7589 ± 0.11 | 994.252 ± 3
10 | CCO [ethanol] | 1.202 ± 0.17 | 1160.7 ± 1.8 | 789.547 ± 3 | 1.091 ± 0.15 | 1143.5 ± 1.8 | 785.26 ± 3 | 0.992 ± 0.14 | 1126.4 ± 1.8 | 780.941 ± 3 | 0.9039 ± 0.13 | 1109.6 ± 1.8 | 776.592 ± 3 | – | – | – | – | – | – | – | –
11 | O [water] + OCCOCCO | – | – | – | – | – | – | – | – | – | – | – | – | 1.067 ± 0.15 | 998.429 ± 3 | 0.8969 ± 0.13 | 997.267 ± 3 | 0.8385 ± 0.12 | 995.867 ± 3 | 0.7589 ± 0.11 | 994.252 ± 3
